Measured values taken from patent US11964938B2, “3-phenyl-4-hexynoic acid derivatives as GPR40 agonists” (CELON PHARMA S.A., priority 2018, dated 2024).
Counter-ions that a name gives are not always drawn.

Columns and labels:
[1] = target: T1, OAT2v1 (Homo sapiens, UniProt Q9Y694); assay: Uptake transporter inhibition assay, OAT2v1; assay type: cell-based; conditions: HEK293 cells overexpressing transporter
T1 construct: host or cells: HEK293
T1 sequence (Q9Y694 1-546 isoform Q9Y694-2): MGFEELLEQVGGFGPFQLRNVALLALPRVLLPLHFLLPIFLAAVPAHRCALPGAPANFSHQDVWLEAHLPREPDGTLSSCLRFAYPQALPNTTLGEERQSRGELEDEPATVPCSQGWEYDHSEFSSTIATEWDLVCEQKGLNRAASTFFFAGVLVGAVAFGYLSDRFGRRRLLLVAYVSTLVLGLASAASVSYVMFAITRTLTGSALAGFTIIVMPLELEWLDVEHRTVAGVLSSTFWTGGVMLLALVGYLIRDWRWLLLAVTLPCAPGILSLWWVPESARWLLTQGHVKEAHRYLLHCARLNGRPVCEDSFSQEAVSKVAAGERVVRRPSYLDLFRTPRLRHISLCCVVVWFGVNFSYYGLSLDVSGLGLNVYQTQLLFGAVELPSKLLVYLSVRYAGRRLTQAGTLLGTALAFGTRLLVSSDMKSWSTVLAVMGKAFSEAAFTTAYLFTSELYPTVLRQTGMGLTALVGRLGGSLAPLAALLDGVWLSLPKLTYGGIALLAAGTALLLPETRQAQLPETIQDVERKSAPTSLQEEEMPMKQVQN
Protocol: (§1) Experiment B4: Bile Acid Transporters Inhibition in the Liver.
(§2) The compound was tested on a panel of 10 transporters: BSEP, MRP2, MRP3, MRP4 in a vesicular transport inhibition assay and NTCP, OAT1, OAT2v1, OATP1A2, OATP1B1, OATP1B3 in an uptake transporter inhibition assays.
(§3) Transporter uptake inhibition test was performed on mammal HEK293 cells overexpressing of a respective transporter. Cells were cultured at 37±1° C. and seeded on 96-well tissue culture plate at 1×10^5/well. Substrate was removed prior to experiment and cells were washed twice with 100 μl of respective buffer (HK pH 7.4 for OATP1B1 and HBSS pH 7.4 for NTCP, OAT1, OAT2v1, OATP1A2, and OATP1B3). Uptake studies were performed at 37±1° C. in 50 μl of respective buffer containing radioactively tagged substrate and tested compound or solvent.
(§4) After experiment cells were washed twice with 100 μl of ice-cold respective buffer and lysed with 50 μl of 0.1M NaOH. Transport of radioactively tagged substrate was determined by scintillation counter measurement.

[2] = target: T2, BSEP (Homo sapiens, UniProt O95342); assay: Vesicular transport inhibition assay, BSEP; assay type: biochemical; conditions: membrane vesicles from HEK293 cells
T2 construct: host or cells: HEK293 (membrane vesicles)
Protocol: (§5) Experiment B4: Bile Acid Transporters Inhibition in the Liver. […] The compound was tested on a panel of 10 transporters: BSEP, MRP2, MRP3, MRP4 in a vesicular transport inhibition assay and NTCP, OAT1, OAT2v1, OATP1A2, OATP1B1, OATP1B3 in an uptake transporter inhibition assays. Vesicular transport inhibition assay was performed on membrane vesicles isolated from mammal HEK293 cells overexpressing human ABC transporters. Tested compound were incubated with vesicles and substrates for respective tested transporters. Incubation was performed in the presence of 4 mM ATP or AMP in order to differentiate between uptake by a transporter and passive diffusion into vesicles. In the case of MRP2 and MRP3, reactions were performed in the presence of 2 mM glutathione. Tested compounds were added to the reaction mixture dissolved in 0.75 μl of a solvent (1% of final incubation volume). Reaction mixtures were preincubated for 15 minutes at 37±1° C. Reactions were started by the addition of 25 μl of 12 mM MgATP (or 12 mM AMP) in test buffer, as a background control, separately preincubated.

[3] = target: T3, OATP1B3 (Homo sapiens, UniProt Q9NPD5); assay: Uptake transporter inhibition assay, OATP1B3; assay type: cell-based; conditions: HEK293 cells overexpressing transporter
T3 construct: host or cells: HEK293
T3 sequence (Q9NPD5 1-702): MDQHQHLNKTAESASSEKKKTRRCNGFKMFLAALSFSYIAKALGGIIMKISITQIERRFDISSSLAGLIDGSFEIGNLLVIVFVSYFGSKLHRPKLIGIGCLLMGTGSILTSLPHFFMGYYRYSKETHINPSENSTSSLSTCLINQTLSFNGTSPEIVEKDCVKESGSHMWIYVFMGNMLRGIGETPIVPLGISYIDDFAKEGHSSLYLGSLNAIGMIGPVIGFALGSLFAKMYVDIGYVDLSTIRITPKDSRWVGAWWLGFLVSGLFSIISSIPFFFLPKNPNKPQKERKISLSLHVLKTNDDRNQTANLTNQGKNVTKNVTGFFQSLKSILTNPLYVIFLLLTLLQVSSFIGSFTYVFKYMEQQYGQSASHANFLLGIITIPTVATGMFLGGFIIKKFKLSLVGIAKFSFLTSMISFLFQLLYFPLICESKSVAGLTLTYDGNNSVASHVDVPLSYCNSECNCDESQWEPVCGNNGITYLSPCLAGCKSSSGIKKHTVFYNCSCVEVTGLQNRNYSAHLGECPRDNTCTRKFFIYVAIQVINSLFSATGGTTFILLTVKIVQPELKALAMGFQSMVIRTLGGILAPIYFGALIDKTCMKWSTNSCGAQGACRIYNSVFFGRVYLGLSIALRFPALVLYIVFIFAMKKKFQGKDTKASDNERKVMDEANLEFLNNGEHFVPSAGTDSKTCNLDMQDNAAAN
Protocol: as §1, §2, §3, §4

[4] = target: T4, MRP3 (Homo sapiens, UniProt O15438); assay: Vesicular transport inhibition assay, MRP3; assay type: biochemical; conditions: membrane vesicles from HEK293 cells
T4 construct: host or cells: HEK293 (membrane vesicles)
Protocol: as §5

[5] = target: T5, MRP2 (Homo sapiens, UniProt Q92887); assay: Vesicular transport inhibition assay, MRP2; assay type: biochemical; conditions: membrane vesicles from HEK293 cells
T5 construct: host or cells: HEK293 (membrane vesicles)
Protocol: as §5

[6] = target: T6, OAT1 (Homo sapiens, UniProt Q4U2R8); assay: Uptake transporter inhibition assay, OAT1; assay type: cell-based; conditions: HEK293 cells overexpressing transporter
T6 construct: host or cells: HEK293
T6 sequence (Q4U2R8 1-563): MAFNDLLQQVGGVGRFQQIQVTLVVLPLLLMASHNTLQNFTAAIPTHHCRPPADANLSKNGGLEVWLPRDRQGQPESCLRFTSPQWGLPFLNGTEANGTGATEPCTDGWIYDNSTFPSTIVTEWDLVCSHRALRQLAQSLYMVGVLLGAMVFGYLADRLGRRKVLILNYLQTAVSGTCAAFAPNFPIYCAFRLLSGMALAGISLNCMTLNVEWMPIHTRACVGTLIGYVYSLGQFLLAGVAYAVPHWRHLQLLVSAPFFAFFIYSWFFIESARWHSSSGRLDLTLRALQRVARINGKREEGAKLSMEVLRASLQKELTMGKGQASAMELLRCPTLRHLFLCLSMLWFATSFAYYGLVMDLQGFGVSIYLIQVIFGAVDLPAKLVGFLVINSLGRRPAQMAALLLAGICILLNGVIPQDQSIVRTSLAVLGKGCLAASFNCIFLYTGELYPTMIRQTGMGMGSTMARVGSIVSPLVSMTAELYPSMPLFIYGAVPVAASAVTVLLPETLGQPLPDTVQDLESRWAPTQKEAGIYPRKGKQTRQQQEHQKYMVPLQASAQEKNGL
Protocol: as §1, §2, §3, §4

T2 sequence (O95342 whole entry): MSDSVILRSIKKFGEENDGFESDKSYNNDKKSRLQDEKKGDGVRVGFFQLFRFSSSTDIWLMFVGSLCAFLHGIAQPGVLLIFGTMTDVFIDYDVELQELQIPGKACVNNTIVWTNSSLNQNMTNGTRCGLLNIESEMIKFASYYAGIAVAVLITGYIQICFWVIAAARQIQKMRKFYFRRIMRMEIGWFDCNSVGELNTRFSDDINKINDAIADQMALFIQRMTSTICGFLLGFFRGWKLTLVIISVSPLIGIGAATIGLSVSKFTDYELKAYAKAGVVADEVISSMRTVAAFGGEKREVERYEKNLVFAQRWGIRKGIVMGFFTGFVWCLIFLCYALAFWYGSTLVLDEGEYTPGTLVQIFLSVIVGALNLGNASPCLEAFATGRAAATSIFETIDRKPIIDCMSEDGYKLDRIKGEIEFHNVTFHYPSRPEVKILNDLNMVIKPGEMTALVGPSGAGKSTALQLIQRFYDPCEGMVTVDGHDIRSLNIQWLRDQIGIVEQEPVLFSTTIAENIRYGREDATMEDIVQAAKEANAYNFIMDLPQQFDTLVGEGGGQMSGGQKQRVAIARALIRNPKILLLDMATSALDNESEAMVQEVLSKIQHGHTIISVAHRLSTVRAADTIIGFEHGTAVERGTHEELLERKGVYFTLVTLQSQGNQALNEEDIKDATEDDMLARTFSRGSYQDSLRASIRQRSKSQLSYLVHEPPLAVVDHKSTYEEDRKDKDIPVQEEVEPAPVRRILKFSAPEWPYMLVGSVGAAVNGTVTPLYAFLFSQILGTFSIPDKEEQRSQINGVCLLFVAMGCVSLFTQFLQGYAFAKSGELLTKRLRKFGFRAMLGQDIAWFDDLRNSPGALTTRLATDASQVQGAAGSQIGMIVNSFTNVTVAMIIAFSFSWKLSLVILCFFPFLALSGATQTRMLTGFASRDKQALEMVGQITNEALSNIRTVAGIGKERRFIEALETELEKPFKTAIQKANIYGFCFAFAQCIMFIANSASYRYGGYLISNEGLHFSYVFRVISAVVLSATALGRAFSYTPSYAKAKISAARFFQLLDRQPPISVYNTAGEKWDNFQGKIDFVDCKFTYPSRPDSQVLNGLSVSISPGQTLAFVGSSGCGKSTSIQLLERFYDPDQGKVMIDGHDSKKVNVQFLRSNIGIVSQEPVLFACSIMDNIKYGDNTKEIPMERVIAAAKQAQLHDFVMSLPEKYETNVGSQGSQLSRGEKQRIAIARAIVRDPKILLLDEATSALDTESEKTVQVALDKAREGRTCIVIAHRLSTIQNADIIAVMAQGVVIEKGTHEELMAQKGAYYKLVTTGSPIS
T5 sequence (Q92887 whole entry): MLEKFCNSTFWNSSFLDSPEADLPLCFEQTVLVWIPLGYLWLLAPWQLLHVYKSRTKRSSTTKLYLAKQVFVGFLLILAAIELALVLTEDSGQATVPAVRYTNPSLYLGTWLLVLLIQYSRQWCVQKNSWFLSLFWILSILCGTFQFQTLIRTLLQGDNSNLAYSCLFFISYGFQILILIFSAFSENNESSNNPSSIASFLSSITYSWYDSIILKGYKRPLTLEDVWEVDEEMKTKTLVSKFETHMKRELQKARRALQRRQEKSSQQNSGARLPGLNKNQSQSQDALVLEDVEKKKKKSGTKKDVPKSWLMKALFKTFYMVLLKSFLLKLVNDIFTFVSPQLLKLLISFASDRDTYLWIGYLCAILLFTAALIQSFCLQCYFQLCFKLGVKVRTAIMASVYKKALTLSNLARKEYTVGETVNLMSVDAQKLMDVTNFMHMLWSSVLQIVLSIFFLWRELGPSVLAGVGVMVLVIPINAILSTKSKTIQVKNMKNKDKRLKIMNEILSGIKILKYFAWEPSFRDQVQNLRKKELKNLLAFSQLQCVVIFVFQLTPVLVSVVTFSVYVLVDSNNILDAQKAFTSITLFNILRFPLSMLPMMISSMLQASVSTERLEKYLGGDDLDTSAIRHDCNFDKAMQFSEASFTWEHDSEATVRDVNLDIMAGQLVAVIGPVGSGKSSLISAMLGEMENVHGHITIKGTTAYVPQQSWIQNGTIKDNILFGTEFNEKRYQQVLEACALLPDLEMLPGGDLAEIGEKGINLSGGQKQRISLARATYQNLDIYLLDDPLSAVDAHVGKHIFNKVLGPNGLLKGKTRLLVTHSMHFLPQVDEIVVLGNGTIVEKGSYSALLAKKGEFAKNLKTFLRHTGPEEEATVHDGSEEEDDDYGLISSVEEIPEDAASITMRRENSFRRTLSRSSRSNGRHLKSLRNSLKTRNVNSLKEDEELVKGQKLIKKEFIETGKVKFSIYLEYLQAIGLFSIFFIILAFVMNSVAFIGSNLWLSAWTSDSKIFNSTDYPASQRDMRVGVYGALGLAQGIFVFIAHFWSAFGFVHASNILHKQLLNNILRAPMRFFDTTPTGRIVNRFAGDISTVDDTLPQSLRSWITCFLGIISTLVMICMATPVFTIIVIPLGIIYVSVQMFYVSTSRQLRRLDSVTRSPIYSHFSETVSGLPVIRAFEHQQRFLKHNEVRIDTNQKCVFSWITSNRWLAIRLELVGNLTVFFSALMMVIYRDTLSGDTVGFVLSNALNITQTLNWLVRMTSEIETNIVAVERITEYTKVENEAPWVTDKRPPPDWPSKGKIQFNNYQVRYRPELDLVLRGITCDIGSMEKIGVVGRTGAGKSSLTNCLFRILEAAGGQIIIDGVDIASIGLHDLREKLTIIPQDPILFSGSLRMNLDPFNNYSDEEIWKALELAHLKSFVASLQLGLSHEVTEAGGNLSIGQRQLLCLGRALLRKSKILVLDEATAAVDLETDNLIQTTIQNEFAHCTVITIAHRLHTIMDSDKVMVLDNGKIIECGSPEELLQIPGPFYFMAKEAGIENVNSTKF
T4 sequence (O15438 whole entry): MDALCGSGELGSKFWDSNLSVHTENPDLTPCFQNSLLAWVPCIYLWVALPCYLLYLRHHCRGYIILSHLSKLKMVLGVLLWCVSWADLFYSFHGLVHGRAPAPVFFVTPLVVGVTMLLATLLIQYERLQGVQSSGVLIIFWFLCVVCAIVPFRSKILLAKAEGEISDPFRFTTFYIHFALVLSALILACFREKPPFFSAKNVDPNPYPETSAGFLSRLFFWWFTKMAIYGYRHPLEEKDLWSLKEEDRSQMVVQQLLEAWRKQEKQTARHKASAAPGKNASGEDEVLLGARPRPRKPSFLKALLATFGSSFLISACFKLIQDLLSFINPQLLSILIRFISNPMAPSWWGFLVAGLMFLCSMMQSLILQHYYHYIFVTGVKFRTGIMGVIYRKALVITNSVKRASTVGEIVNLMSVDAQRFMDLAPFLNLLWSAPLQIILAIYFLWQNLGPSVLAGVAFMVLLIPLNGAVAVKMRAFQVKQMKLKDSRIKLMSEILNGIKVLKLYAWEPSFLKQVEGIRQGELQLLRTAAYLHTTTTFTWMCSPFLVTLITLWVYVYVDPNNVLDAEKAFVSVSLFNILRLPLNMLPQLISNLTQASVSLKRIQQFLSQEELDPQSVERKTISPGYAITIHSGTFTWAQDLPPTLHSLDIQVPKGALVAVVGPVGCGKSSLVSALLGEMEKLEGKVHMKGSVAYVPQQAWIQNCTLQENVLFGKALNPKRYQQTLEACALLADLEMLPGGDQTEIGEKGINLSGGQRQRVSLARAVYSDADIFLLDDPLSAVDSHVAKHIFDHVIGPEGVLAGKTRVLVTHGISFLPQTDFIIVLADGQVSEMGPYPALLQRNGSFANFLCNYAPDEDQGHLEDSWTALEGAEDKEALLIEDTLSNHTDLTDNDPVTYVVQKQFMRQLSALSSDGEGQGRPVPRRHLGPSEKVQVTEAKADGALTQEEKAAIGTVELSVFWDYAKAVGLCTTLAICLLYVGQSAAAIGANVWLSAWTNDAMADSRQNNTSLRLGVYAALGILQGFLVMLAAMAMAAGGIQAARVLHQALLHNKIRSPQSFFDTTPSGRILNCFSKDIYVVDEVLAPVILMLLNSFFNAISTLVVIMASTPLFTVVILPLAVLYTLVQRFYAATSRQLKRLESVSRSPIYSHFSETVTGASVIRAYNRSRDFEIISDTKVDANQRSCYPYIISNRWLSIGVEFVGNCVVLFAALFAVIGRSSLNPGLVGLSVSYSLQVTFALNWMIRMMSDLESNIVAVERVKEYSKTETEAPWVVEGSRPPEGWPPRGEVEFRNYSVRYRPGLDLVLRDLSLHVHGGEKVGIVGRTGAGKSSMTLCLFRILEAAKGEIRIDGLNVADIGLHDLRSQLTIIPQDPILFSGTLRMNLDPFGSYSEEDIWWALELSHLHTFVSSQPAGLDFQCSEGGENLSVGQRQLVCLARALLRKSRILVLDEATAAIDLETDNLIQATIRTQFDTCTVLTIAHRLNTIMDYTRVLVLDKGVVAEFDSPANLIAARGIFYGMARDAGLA

Cc1cc(OCCCS(C)(=O)=O)cc(C)c1-c1cccc(COc2ccc3c(c2)OC[C@H]3CC(=O)O)c1 [Example R1, 2[(3S)-6-({3-[4-(3-methanesulfonylpropoxy)-2,6-dimethylphenyl]-phenyl}methoxy)-2,3-dihydro-1-benzofuran-3-yl]acetic acid, reference compound]
IC50 [1]: 62.8 µM
IC50 [2]: 30 µM
IC50 [3]: 3.44 µM
IC50 ([4]; 2 mM glutathione): 31.8 µM
IC50 ([5]; 2 mM glutathione): 48.1 µM
IC50 [6]: 34.8 µM

CC#C[C@@H](CC(=O)O)c1ccc(OCC(C)=C(C)C)cc1 [Example S1, (3S)-3-{4-[(2,3-dimethylbut-2-en-1-yl)oxy]phenyl}hex-4-ynoic acid calcium salt]
IC50 [1]: > 300 µM
IC50 [2]: > 100 µM
IC50 [3]: 42.9 µM
IC50 ([4]; symbol per footnote): > 100 µM
IC50 ([5]; symbol per footnote): > 100 µM
IC50 [6]: 245 µM
